According to PMC6206036, “Locking loop movement in the ubiquinone pocket of complex I disengages the proton pumps” (Nature Communications, 2018):
Like-named read-outs stand apart in the source and are kept apart here.

Tests used:
[1] = biological target: T1, Complex I (proton-pumping NADH:ubiquinone oxidoreductase) (Yarrowia lipolytica, UniProt Q9B6C7+Q9B6E8+Q9UUT7+Q9UUU1); test: inhibition of dNADH:DBQ oxidoreductase activity, mitochondrial membranes; assay type: biochemical
T1 construct: gene nucm; native complete respiratory complex I in unsealed mitochondrial membranes; nugm-Htg2 (tagged NUGM) strain background; NUKM expressed from replicative plasmid pUB4 under endogenous promoter; 14 central plus accessory subunits; with NADH-ubiquinone oxidoreductase 51 kDa subunit, mitochondrial
Excerpt: inhibition of dNADH:DBQ oxidoreductase activity, mitochondrial membranes on Complex I (proton-pumping NADH:ubiquinone oxidoreductase)

[2] = biological target: T1, Complex I (proton-pumping NADH:ubiquinone oxidoreductase); test: dNADH:DBQ oxidoreductase activity at […] nm, mitochondrial membranes; assay type: biochemical; conditions: 100 µM dNADH, DBQ 0-100 µM, pH 8.5, 25 °C; membranes preincubated with 5 mM DTT for 5 min (ND3-PSST disulfide reduced); read-out: K M ^d /
[3] = substrate: CCCCCCCCCCC1=C(C)C(=O)C(OC)=C(OC)C1=O; test: cells, lysate or membranes; assay type: biochemical, Yarrowia lipolytica; conditions: 100 µM dNADH, DBQ 0-100 µM, pH 8.5, 25 °C, membranes preincubated with 5 mM DTT for 5 min

CCCCCCCCCCc1nc(N)c2ccccc2n1 [DQA, 2-n-decyl-quinazolin-4-yl-amine]
IC50 ([1]; 100 µM dNADH, 100 µM DBQ, pH 8.5, 25 °C, membranes preincubated with 5 mM DTT for 5 min (ND3-PSST disulfide reduced)): 13 ± 3 nM
IC50 ([1]; 100 µM dNADH, 100 µM DBQ, pH 8.5, 25 °C, membranes preincubated with 5 mM DTT for 5 min, read-out: IC50^e / DQA /): 16 ± 3 nM

C=C(C)[C@H]1Cc2c(ccc3c2O[C@@H]2COc4cc(OC)c(OC)cc4[C@@H]2C3=O)O1 [rotenone]
IC50 ([1]; read-out: IC50^e / Rotenone /): 560 ± 55 nM

CCCCCCCCCCC1=C(C)C(=O)C(OC)=C(OC)C1=O [DBQ, decylubiquinone]
Km [2]: 19 ± 3 µM

B1: Complex I (proton-pumping NADH:ubiquinone oxidoreductase) (Yarrowia lipolytica CLIB122) (protein)
chain 1: MATTALPQDPIPSGALGQKVPHVDESHQDLLFRTSHMVEDLETYDEDSPINTSDANTRIRAFTINFGPQHPAAHGVLRLILELSGEEIIRSDPHVGLLHRGTEKLIEYKTYMQALPYFDRLDYVSMMTNEQVFSLAVEKLLNVEVPLRGKYIRTMFGEITRVLNHLMSVCSHAMDVGALTPFLWGFEEREKLMEFYERVSGARLHAAYVRPGGVSQDLPAGLLDDIYMWATQFGDRLDEIEELLTDNRIWKLRTVNIGTVTAQDALNLGLSGPMLRGSGIPFDIRKNAPYDAYDKVDFDVPVGMNGDCYDRYLIRMAEFRQSLRIIEQCCNDMPAGAVKVEDFKINSPPRNLMKEDMEALIHHFLLYTKGYSVPPGETYTAIEAPKGEMGVYVVSDGSERPYKCKIRAPGFAHLGAFDHIARGHFLPDAVAIIGTMDLVFGEVDR
chain 2: SAPAGTPRVSSSSMPTDFPLPSQQKPNSAVDYTLTTLDAVANWARQGSFWPVTFGLACCAVEMMHVSAPRYDQDRLGIIFRASPRQSDIMIVAGTLTNKMAPVLRQVYDQMPEPRWVISMGSCANGGGYYHFSYSVVRGCDRIVPVDVYVPGCPPTSEALMYGVFQLQRKMRNTKITRMWYRK
chain 3: MIINIVEILIFLVCVLFSVAYLTVAERKTLAYMQRRLGPNFVGYYGLLQAFADAVKLLLKEIVLPKESNYIILVISPLITLITALIGWVVIPLGPGITLGELNLGILFSLAIGSLGVFGSLLSGWSSNSKYSLLGSIRSTAQLISYELILTSIFIIIIMFVSSLNITTIIETQRVVWYCIPLLPLLLIFFIASVAETARPPFDLTESESELVAGYFTEYSGSPFVFFFLAEYSNIILISAFNGYLLLGGYLSFNYSYLFNILFNDYSYVSFLFEGLINSSAYAIKLVFLMFSFIWVRAAFPRFTYDNLINFCWIILLPLLFGIFLIIPSTLYIFDSFPTLI
chain 4: MNTFIIFIILIPIVGFALLAVNILLAVYKPYNEKLGAFECGLTSFNQTRLAFNAAFILVAILFLPFDLEISTLLPYVMSIYLVSNYGFTIVLLFLLILIIGFVYEINTNALKINKHNKPNTDSLIYKL
notes: native complete respiratory complex I in unsealed mitochondrial membranes; nugm-Htg2 (tagged NUGM) strain background; NUKM expressed from replicative plasmid pUB4 under endogenous promoter; 14 central plus accessory subunits; with NADH-ubiquinone oxidoreductase 51 kDa subunit, mitochondrial
Km [3]: 17 ± 3 µM
Vmax [3]: 0.16 µmol/min/mg
